Assay results reported in patent publication US11459323B2, “Monocyclic β-lactam compound for treating bacterial infection” (MEDSHINE DISCOVERY INC., priority 2018, dated 2022).
Read-outs that look alike come from different tables or passages of the source.

How the values were obtained:
Experiment in all cases: MIC on clinically isolated bacteria
Assay type in all cases: cell-based
[1] = system: Pseudomonas aeruginosa C745
Text: (§1) Twenty-five strains of clinically isolated Acinetobacter baumannii and twenty-seven strains of Pseudomonas aeruginosa were respectively selected and used to determine the minimum inhibitory concentration (MIC) of the compounds by micro-liquid dilution method according to the Institute of Clinical and Laboratory Standard (CLSI) requirements.

[2] = system: Pseudomonas aeruginosa C755
Text: as §1

[3] = system: Pseudomonas aeruginosa W46
Text: as §1

[4] = system: Acinetobacter baumannii C390
Text: as §1

[5] = system: Pseudomonas aeruginosa C754
Text: as §1

[6] = system: Acinetobacter baumannii C283
Text: as §1

[7] = system: Pseudomonas aeruginosa W29
Text: as §1

[8] = system: Pseudomonas aeruginosa W27
Text: as §1

[9] = system: Pseudomonas aeruginosa C761
Text: as §1

[10] = system: Pseudomonas aeruginosa C763
Text: as §1

[11] = system: Pseudomonas aeruginosa W20
Text: as §1

[12] = system: Acinetobacter baumannii C395
Text: as §1

[13] = system: Acinetobacter baumannii C312
Text: as §1

[14] = system: Pseudomonas aeruginosa W32
Text: as §1

[15] = system: Acinetobacter baumannii C281
Text: as §1

[16] = system: Pseudomonas aeruginosa W21
Text: as §1

[17] = system: Pseudomonas aeruginosa W42
Text: as §1

[18] = system: Pseudomonas aeruginosa W13
Text: as §1

[19] = system: Acinetobacter baumannii C319
Text: as §1

[20] = system: Pseudomonas aeruginosa W9
Text: as §1

[21] = system: Acinetobacter baumannii C315
Text: as §1

[22] = system: Aeruginosa ATCC27853; settings: Pseudomonas aeruginosa
Text: as §1

[23] = system: Acinetobacter baumannii C332
Text: as §1

[24] = system: Acinetobacter baumannii C328
Text: as §1

[25] = system: Acinetobacter baumannii C333
Text: as §1

[26] = system: Acinetobacter baumannii C313
Text: as §1

[27] = system: Pseudomonas aeruginosa C762
Text: as §1

[28] = system: Pseudomonas aeruginosa W4
Text: as §1

[29] = system: Pseudomonas aeruginosa M1
Text: as §1

[30] = system: Acinetobacter baumannii C408
Text: as §1

[31] = system: Pseudomonas aeruginosa W28
Text: as §1

[32] = system: Pseudomonas aeruginosa W47
Text: as §1

[33] = system: Acinetobacter baumannii C279
Text: as §1

[34] = system: Acinetobacter baumannii C402
Text: as §1

[35] = system: Acinetobacter baumannii C251
Text: as §1

[36] = system: Acinetobacter baumannii C427
Text: as §1

[37] = system: Pseudomonas aeruginosa W23
Text: as §1

[38] = system: Pseudomonas aeruginosa M4
Text: as §1

[39] = system: Acinetobacter baumannii C181
Text: as §1

[40] = system: Acinetobacter baumannii C241
Text: as §1

[41] = system: Acinetobacter baumannii C394
Text: as §1

[42] = Acinetobacter baumannii C390, read-out: Minimum Inhibitory Concentration (MIC)
[43] = Acinetobacter baumannii C283, read-out: Minimum Inhibitory Concentration (MIC)
[44] = Acinetobacter baumannii C395, read-out: Minimum Inhibitory Concentration (MIC)
[45] = Acinetobacter baumannii C312, read-out: Minimum Inhibitory Concentration (MIC)
[46] = Acinetobacter baumannii C281, read-out: Minimum Inhibitory Concentration (MIC)
[47] = Acinetobacter baumannii C319, read-out: Minimum Inhibitory Concentration (MIC)
[48] = Acinetobacter baumannii C315, read-out: Minimum Inhibitory Concentration (MIC)
[49] = Aeruginosa ATCC27853, read-out: MIC
[50] = Acinetobacter baumannii C332, read-out: Minimum Inhibitory Concentration (MIC)
[51] = Acinetobacter baumannii C328, read-out: Minimum Inhibitory Concentration (MIC)
[52] = Acinetobacter baumannii C333, read-out: Minimum Inhibitory Concentration (MIC)
[53] = Acinetobacter baumannii C313, read-out: Minimum Inhibitory Concentration (MIC)
[54] = Acinetobacter baumannii C408, read-out: Minimum Inhibitory Concentration (MIC)
[55] = Acinetobacter baumannii C279, read-out: Minimum Inhibitory Concentration (MIC)
[56] = Acinetobacter baumannii C402, read-out: Minimum Inhibitory Concentration (MIC)
[57] = Acinetobacter baumannii C251, read-out: Minimum Inhibitory Concentration (MIC)
[58] = Acinetobacter baumannii C427, read-out: Minimum Inhibitory Concentration (MIC)
[59] = Acinetobacter baumannii C181, read-out: Minimum Inhibitory Concentration (MIC)
[60] = Acinetobacter baumannii C241, read-out: Minimum Inhibitory Concentration (MIC)
[61] = Acinetobacter baumannii C394, read-out: Minimum Inhibitory Concentration (MIC)

Measured: MIC

CC1(C)[C@H](NC(=O)/C(=N\O[C@@H](COc2ccc3c(c2)CN(/C(=N\[C@@H]2CCCNC2)N[C@@H]2CCCNC2)C3)C(=O)O)c2csc(N)n2)C(=O)N1OS(=O)(=O)O [Compound 46]
0.5 µg/mL: [2]; read-out: MIC | [3]; read-out: MIC | [5]; read-out: MIC | [17]; read-out: MIC | [22]; [49]
0.25 µg/mL: [9]; read-out: MIC | [16]; read-out: MIC | [18]; read-out: MIC | [37]; read-out: MIC
8 µg/mL: [27]; read-out: MIC
> 16 µg/mL: [35]; [57]
1 µg/mL: [7]; read-out: MIC | [8]; read-out: MIC | [11]; read-out: MIC | [14]; read-out: MIC | [20]; read-out: MIC | [28]; read-out: MIC | [29]; read-out: MIC | [32]; read-out: MIC | [38]; read-out: MIC
4 µg/mL: [1]; read-out: MIC | [4]; [42] | [6]; [43] | [10]; read-out: MIC | [12]; [44] | [13]; [45] | [15]; [46] | [19]; [47] | [21]; [48] | [23]; [50] | [24]; [51] | [25]; [52] | [26]; [53] | [30]; [54] | [31]; read-out: MIC | [33]; [55] | [34]; [56] | [36]; [58] | [39]; [59] | [40]; [60] | [41]; [61]

CN(C)c1cc(NC(=O)CNC(C)(C)C)c(O)c2c1C[C@H]1C[C@H]3[C@H](N(C)C)C(O)=C(C(N)=O)C(=O)[C@@]3(O)C(O)=C1C2=O [Tigecycline, reference compound]
16 µg/mL: [7] | [8] | [9] | [11] | [14] | [20] | [29] | [32] | [37]
8 µg/mL: [3] | [5] | [16] | [17] | [18] | [22]; ATCC27853 | [28] | [35]; Acinetobacter baumannii, C251, read-out: Minimum Inhibitory Concentration (MIC)
> 16 µg/mL: [1] | [10] | [27] | [31]
1 µg/mL: [4]; Acinetobacter baumannii, C390, read-out: Minimum Inhibitory Concentration (MIC) | [6]; Acinetobacter baumannii, C283, read-out: Minimum Inhibitory Concentration (MIC) | [12]; Acinetobacter baumannii, C395, read-out: Minimum Inhibitory Concentration (MIC) | [13]; Acinetobacter baumannii, C312, read-out: Minimum Inhibitory Concentration (MIC) | [15]; Acinetobacter baumannii, C281, read-out: Minimum Inhibitory Concentration (MIC) | [19]; Acinetobacter baumannii, C319, read-out: Minimum Inhibitory Concentration (MIC) | [21]; Acinetobacter baumannii, C315, read-out: Minimum Inhibitory Concentration (MIC) | [23]; Acinetobacter baumannii, C332, read-out: Minimum Inhibitory Concentration (MIC) | [24]; Acinetobacter baumannii, C328, read-out: Minimum Inhibitory Concentration (MIC) | [25]; Acinetobacter baumannii, C333, read-out: Minimum Inhibitory Concentration (MIC) | [26]; Acinetobacter baumannii, C313, read-out: Minimum Inhibitory Concentration (MIC) | [30]; Acinetobacter baumannii, C408, read-out: Minimum Inhibitory Concentration (MIC) | [33]; Acinetobacter baumannii, C279, read-out: Minimum Inhibitory Concentration (MIC) | [34]; Acinetobacter baumannii, C402, read-out: Minimum Inhibitory Concentration (MIC) | [36]; Acinetobacter baumannii, C427, read-out: Minimum Inhibitory Concentration (MIC) | [39]; Acinetobacter baumannii, C181, read-out: Minimum Inhibitory Concentration (MIC) | [41]; Acinetobacter baumannii, C394, read-out: Minimum Inhibitory Concentration (MIC)
4 µg/mL: [2] | [38]
2 µg/mL: [40]; Acinetobacter baumannii, C241, read-out: Minimum Inhibitory Concentration (MIC)

CC1(C)[C@H](NC(=O)/C(=N\O[C@@H](COc2ccc3c(c2)CN(C(=N)NCCN)C3)C(=O)O)c2csc(N)n2)C(=O)N1OS(=O)(=O)O [Compound 44]
4 µg/mL: [1]; read-out: MIC | [8]; read-out: MIC | [20]; read-out: MIC | [27]; read-out: MIC | [31]; read-out: MIC | [35]; [57]
0.5 µg/mL: [2]; read-out: MIC | [5]; read-out: MIC | [16]; read-out: MIC | [17]; read-out: MIC | [18]; read-out: MIC | [22]; [49] | [28]; read-out: MIC | [29]; read-out: MIC | [37]; read-out: MIC | [38]; read-out: MIC
1 µg/mL: [3]; read-out: MIC | [4]; [42] | [6]; [43] | [9]; read-out: MIC | [12]; [44] | [13]; [45] | [15]; [46] | [19]; [47] | [21]; [48] | [23]; [50] | [24]; [51] | [26]; [53] | [30]; [54] | [33]; [55] | [34]; [56] | [41]; [61]
2 µg/mL: [7]; read-out: MIC | [10]; read-out: MIC | [11]; read-out: MIC | [14]; read-out: MIC | [25]; [52] | [32]; read-out: MIC | [36]; [58] | [39]; [59] | [40]; [60]
